The text below walks through data of PubChem BioAssay (NCI).

Molecules are shown by their SMILES.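 96-well plates; 48 h exposure; 5 concentrations. Endpoints by linear interpolation between flanking doses. Not reached: highest tested concentration assigned. Abbreviation: GI50, concentration required for 50% inhibition of growth. TGI denotes the concentration required for complete inhibition of growth.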

Holding throughout (experiment): DTP human tumour cell line panel, 48 h
Assay [1] has as its system T-47D breast.
The subject of assay [2] is U251 CNS.
Assay [3] relates to SK-MEL-5 melanoma.
In assay [4] the test system is HCT-116 colon.
In assay [5] the test system is HCT-15 colon.
Assay [6] deals with OVCAR-5 ovarian.
Assay [7] deals with MOLT-4 leukemia.
Assay [8] deals with NCI/ADR-RES ovarian.
Assay [9] deals with MALME-3M melanoma.
Assay [10] concerns A498 renal.

Turning to `C=CCc1cccc(C=O)c1O`, the GI50 – broadly, the concentration that inhibits growth by half – in [1] is 10.2 µM; in assay [2] it was 6.63 µM; in assay [3] it was 38.5 µM; in assay [4], 4.07 µM; in assay [5] it was 6.56 µM; in assay [6], > 100 µM. Further, the GI50 was 15.5 µM in assay [7], 20.4 µM in assay [8] and > 100 µM in [9]. Further, the TGI in assay [1], in assay [2], in assay [3], in [4], in assay [5] and in assay [6] was > 100 µM each time. The values for the TGI in [7], in assay [8] and in assay [9] were 55.1 µM, > 100 µM and > 100 µM, respectively.

Turning to `O=S(=O)(NCCCNc1cc(-c2cn(-c3ccccc3)nc2-c2cccc(O)c2)ccn1)c1ccc(C(F)(F)F)cc1`, the GI50 in [1] is 2.49 µM; in [2], 1.28 µM; in assay [3], 1.56 µM; in assay [4], 1.44 µM; in assay [5], 1.47 µM; in assay [6], 1.92 µM. Also, the GI50 is 1.83 µM in [7], 1.1 µM in assay [10] and 2.45 µM in [8]. Moreover, the TGI – broadly, the concentration giving total growth inhibition – was 7.08 µM in assay [1]; 3.26 µM in assay [2]; 2.97 µM in [3]; 2.95 µM in assay [4]; 3.36 µM in [5]; 5.16 µM in assay [6]. Also, the TGI in [7] was 5.36 µM; in [10], 2.64 µM; in assay [8], 7.13 µM.

Take `Cn1ncnc1[C@@H]1c2n[nH]c(=O)c3cc(F)cc(c23)N[C@H]1c1ccc(F)cc1`: the GI50 in assay [1], in assay [3], in [4], in [5], in [6] and in assay [7] was > 100 µM in each case. The GI50 in assay [10], in assay [8] and in [9] was > 100 µM throughout. For the same compound, the TGI in assay [1], in assay [3], in assay [4], in assay [5], in assay [6] and in [7] was > 100 µM in each case. Also, the TGI in [10], in assay [8] and in assay [9] was > 100 µM throughout.

As to `C=CCC1(O)c2ccccc2C(=O)c2c(OCC(=O)OCC)ccc(OCC(=O)OCC)c21` (configuration not stated), the GI50 was > 100 µM in [1]; 81 µM in assay [2]; > 100 µM in [3]; > 100 µM in assay [4]; > 100 µM in [5]; > 100 µM in assay [6]. The results for the GI50 in assay [7], in assay [10] and in assay [8] were 51 µM, > 100 µM and > 100 µM, respectively. The concentration for total growth inhibition (TGI) in [1], in assay [2], in [3], in assay [4], in assay [5] and in assay [6] was > 100 µM each time. For the same compound, the TGI in [7], in assay [10] and in [8] was > 100 µM each time.

On to `COC(=O)C(=O)C(C(=O)C(=O)Nc1ccc(Cl)c(Cl)c1)c1nc2ccc(C(=O)c3ccccc3)cc2[nH]c1=O` (configuration not stated), for which the TGI in assay [1], in assay [2], in [3], in assay [4], in assay [6] and in assay [7] was > 100 µM throughout. Also, the TGI in [10], in assay [8] and in assay [9] was > 100 µM throughout.

As for `CC(C)(C)CC(C)(C)c1ccc(OCCO)cc1`, the GI50 is 2.1 µg/mL in [1]; 5.34 µg/mL in assay [2]; 0.89 µg/mL in assay [3]; 3.86 µg/mL in assay [4]; 7.74 µg/mL in assay [5]; 11.9 µg/mL in [6]. Besides, the GI50 in assay [7] was 3.41 µg/mL; in assay [10], 0.0423 µg/mL; in assay [8], 2.61 µg/mL. Besides, the TGI in [1] was determined as 18.3 µg/mL; in assay [2], 19.6 µg/mL; in assay [3], 7.63 µg/mL; in assay [4], 14.5 µg/mL; in assay [5] it was 19.3 µg/mL; in assay [6], 27.5 µg/mL. The TGI is > 75 µg/mL in assay [7], 14.2 µg/mL in assay [10] and 18.1 µg/mL in [8].

On to `CCOC(=O)c1noc2c1CCc1c-2cn(Cc2ccc(OC)cc2)c1-c1cc(OC)c(OC)c(OC)c1`, for which the GI50 was > 100 µM in assay [1]; 0.542 µM in assay [2]; 0.493 µM in assay [3]; 0.399 µM in assay [4]; 0.499 µM in [5]; 4.72 µM in assay [6]. In addition, the GI50 in assay [7] was 2.7 µM; in assay [10], 2.77 µM; in [8], 3.52 µM. Further, the TGI in [1] is > 100 µM; in assay [2], > 100 µM; in assay [3], 66.7 µM; in assay [4], > 100 µM; in assay [5], > 100 µM; in [6] it was > 100 µM. The TGI was > 100 µM in assay [7], 42 µM in assay [10] and > 100 µM in [8].

For the compound `NS(=O)(=O)c1ccc(N(/C=C/C(=O)C(F)(F)F)CC(=O)c2ccc(F)cc2)cc1`, the GI50 was 43 µM in assay [1]; 18.4 µM in assay [2]; 22.5 µM in [4]; 23.6 µM in [5]; 28.8 µM in assay [6]; 20 µM in assay [7]. In addition, the GI50 in [10] was 0.0281 µM; in assay [8], 18.2 µM; in assay [9], 43.1 µM. Moreover, the TGI was > 100 µM in [1]; 48.9 µM in [2]; > 100 µM in [4]; 85.5 µM in assay [5]; 74.4 µM in [6]; 72.5 µM in assay [7]. The total growth inhibition concentration (TGI) in assay [10] came to 0.54 µM; in [8], 41.6 µM; in assay [9] it was 78.9 µM.

Consider `O=C(O)c1ccc(N(/C=C/C(=O)C(F)(F)F)Cc2ccc(Cl)cc2)cc1`, for which the GI50 in [1] was 28.5 µM; in assay [2], 26.2 µM; in assay [3], 25 µM; in [4], 20.5 µM; in assay [5], 21.4 µM; in assay [6], 44.6 µM. Further, the GI50 in [7] is 34.8 µM; in assay [10], 22 µM; in assay [8], 23 µM. Moreover, the TGI was 93.9 µM in [1]; 86.7 µM in [2]; 81.1 µM in assay [3]; 54.8 µM in assay [4]; 59.7 µM in [5]; > 100 µM in assay [6]. The TGI in assay [7] is > 100 µM; in assay [10] it was 62.9 µM; in [8] it was 68.4 µM.

Regarding `O=C(O)/C=C\C(=O)Nc1ccc2c(c1)-c1ccccc1C2`, the total growth inhibition concentration (TGI) in [1], in assay [2], in [3], in [4], in assay [5] and in assay [6] was > 100 µM in each case. The TGI in assay [10], in assay [8] and in assay [9] was > 100 µM each time.

Consider `COc1ccc2c(c1)[C@@H](NC(C)=O)CCc1cc(OC)c(OC)c(OC)c1-2`, for which the TGI in [1] is > 100 µM; in assay [2], 2.02 µM; in assay [3] it was 0.0298 µM; in [4] it was 0.528 µM; in [5], > 30.9 µM; in [6], > 100 µM. Further, the figures for the TGI in assay [7], in [10] and in [9] were > 42.5 µM, > 100 µM and > 100 µM, respectively.

Take `Cc1c(Cl)cccc1C(=O)Nc1nc2c(s1)CN(C(=O)Nc1cccc(C(F)(F)F)c1)CC2`: the GI50 in assay [1] was 0.239 µM; in assay [2], 0.242 µM; in assay [3], 0.182 µM; in [4], 0.212 µM; in [5] it was 0.129 µM; in assay [6] it was 0.603 µM. The 50% growth inhibitory concentration (GI50) in [7] was 0.291 µM; in assay [8], 0.14 µM; in [9], 0.356 µM. Further, the TGI in assay [1] is > 50 µM; in assay [2], > 50 µM; in assay [3], 3.75 µM; in assay [4] it was > 50 µM; in [5] it was > 50 µM; in assay [6] it was > 50 µM. Also, the TGI is > 50 µM in assay [7], 1.01 µM in assay [8] and > 50 µM in assay [9].

Turning to `O=c1nc2n(-c3cccc(Cl)c3)c3ccc([N+](=O)[O-])cc3cc-2c(=O)[nH]1`, the GI50 in assay [1] is 7.82 µM; in assay [2], 2.63 µM; in assay [3], 5.36 µM; in [4], 1.53 µM; in assay [5], 9.28 µM; in assay [6], 11.7 µM. For the same compound, the GI50 in assay [7] is 2.02 µM; in assay [10] it was 16.7 µM; in assay [8] it was 6.15 µM. The TGI was > 25 µM in [1]; > 25 µM in [2]; 12.8 µM in [3]; 5.68 µM in [4]; > 25 µM in [5]; > 25 µM in assay [6]. Moreover, the figures for the TGI in [7], in assay [10] and in [8] were > 25 µM, > 25 µM and 19.7 µM, respectively.
